Patent US20050060764A1, “Mouse model for bone metabolism” (priority 2003, published 2005)
Strand notation (5' to 3'): a small letter for the sugar, then the base; units joined by * are phosphorothioate-linked, units joined directly phosphodiester-linked; [ ] holds rarer units or linkages, { } end groups; capitals alone tell only the bases. e = 2'-O-(2-methoxyethyl) (MOE); [5mC] = 5-methylcytosine; d = 2'-deoxy (DNA)

Tested on: mouse RANKL mRNA
Experiment: Antisense inhibition of mouse RANKL mRNA levels in C2C12 cells, quantitative real-time PCR (Table 2)
Assay type: cell-based
Design: concentration or dose not given beside the values
Conditions: averages from three experiments
Method: Cells were seeded into 24-well plates (Falcon-353047 at a density of ˜10,000 cells/cm^2 for use in antisense oligonucleotide transfection.
Cells are treated and data are obtained in triplicate. […] Cells were harvested 16-24 hours after oligonucleotide treatment.
PCR reagents were obtained from Invitrogen Corporation, (Carlsbad, Calif.).
Probes and primers to mouse RANKL were designed to hybridize to a mouse RANKL sequence, using published sequence information (GenBank accession number AF013170.1, incorporated herein as SEQ ID NO:ll). For mouse RANKL the PCR primers were: • forward primer: […] (SEQ ID NO:12) • reverse primer: […] (SEQ ID NO: 13) and • the PCR probe was: FAM-[…]-TAMRA (SEQ ID NO: 14) where FAM is the fluorescent reporter dye and TAMRA is the quencher dye. For mouse GAPDH the PCR primers were: • forward primer: […](SEQ ID NO:15) • reverse primer: […](SEQ ID NO:16) and the • PCR probe was: 5′ JOE-[…]-TAMRA 3′ (SEQ ID NO: 17) where JOE is the fluorescent reporter dye and TAMRA is the quencher dye.
In accordance with the present invention, a second series of antisense compounds was designed to target different regions of the mouse RANKL RNA, using published sequences (GenBank accession number AF013170.1, incorporated herein as SEQ ID NO: 11). […] All cytidine residues are 5-methylcytidines. […] If present “N.D.” indicates “no data”.

| Substance | % INHIB (inhibition of mouse RANKL mRNA levels) |
| --- | --- |
| 180793 (antisense eG*e[5mC]*e[5mC]*e[5mC]*eT*dG*d[5mC]*dT*d[5mC]*d[5mC]*dG*d[5mC]*dG*dA*dT*e[5mC]*eG*eT*eT*e[5mC]) [compound 180793] | 74% |
| 180829 (antisense eA*eA*eG*eG*e[5mC]*dA*d[5mC]*d[5mC]*dT*dG*dG*dT*dG*dA*d[5mC]*e[5mC]*eA*eA*e[5mC]*eA) [compound 180829] | 23% |
| 180816 (antisense eA*e[5mC]*e[5mC]*eG*eT*dT*dG*dT*dG*dT*dA*dA*dT*d[5mC]*dA*e[5mC]*e[5mC]*eA*eT*eG) [compound 180816] | 35% |
| 180800 (antisense eA*e[5mC]*eA*eT*eG*dG*dA*dG*d[5mC]*dG*dG*dG*dA*dG*dG*e[5mC]*eG*eG*e[5mC]*eG) [compound 180800] | 54% |
| 180825 (antisense eG*eT*eA*e[5mC]*eA*dT*dT*dT*dA*dA*dA*dA*d[5mC]*dA*dT*eT*eA*eA*eA*eT) [compound 180825] | 25% |
| 180815 (antisense eT*e[5mC]*eA*eT*eA*d[5mC]*dA*d[5mC]*d[5mC]*dG*dT*dG*dG*dG*d[5mC]*e[5mC]*eA*eT*eG*eT) [compound 180815] | 30% |
| atgttccacgaaatgagtct (antisense eA*eT*eG*eT*eT*d[5mC]*d[5mC]*dA*d[5mC]*dG*dA*dA*dA*dT*dG*eA*eG*eT*e[5mC]*eT) [ISIS 180813, 2′-MOE gapmer targeted to mouse RANKL] | at least 40% |
| tcttcactctccagagtcga (antisense eT*e[5mC]*eT*eT*e[5mC]*dA*d[5mC]*dT*d[5mC]*dT*d[5mC]*d[5mC]*dA*dG*dA*eG*eT*e[5mC]*eG*eA) [ISIS 180803, 2′-MOE gapmer targeted to mouse RANKL] | at least 40% |
| tctcggctggcccggcgcat (antisense eT*e[5mC]*eT*e[5mC]*eG*dG*d[5mC]*dT*dG*dG*d[5mC]*d[5mC]*d[5mC]*dG*dG*e[5mC]*eG*e[5mC]*eA*eT) [ISIS 180797, 2′-MOE gapmer targeted to mouse RANKL] | at least 40% |
| 180832 (antisense eG*eG*eA*eA*eA*dA*dA*dA*dA*dA*dG*dA*dA*dA*d[5mC]*e[5mC]*eA*eA*eA*eA) [compound 180832] | 0% |
| 180821 (antisense e[5mC]*eA*eT*eT*eA*d[5mC]*dA*d[5mC]*d[5mC]*dT*dG*dA*dA*dA*dT*eA*eT*eA*eA*e[5mC]) [compound 180821] | 15% |
| tccggatccagcagggaagg (antisense eT*e[5mC]*e[5mC]*eG*eG*dA*dT*d[5mC]*d[5mC]*dA*dG*d[5mC]*dA*dG*dG*eG*eA*eA*eG*eG) [ISIS 180812, 2′-MOE gapmer targeted to mouse RANKL] | at least 40% |
| 180794 (antisense e[5mC]*e[5mC]*eG*eG*e[5mC]*dG*d[5mC]*dA*dT*dG*dG*d[5mC]*dG*d[5mC]*dG*eG*e[5mC]*eG*e[5mC]*e[5mC]) [compound 180794] | 0% |
| agctgaagatagtctgtagg (antisense eA*eG*e[5mC]*eT*eG*dA*dA*dG*dA*dT*dA*dG*dT*d[5mC]*dT*eG*eT*eA*eG*eG) [ISIS 180808, 2′-MOE gapmer targeted to mouse RANKL] | at least 40% |
| 180795 (antisense eG*e[5mC]*eT*eG*eG*d[5mC]*d[5mC]*d[5mC]*dG*dG*d[5mC]*dG*d[5mC]*dA*dT*eG*eG*e[5mC]*eG*e[5mC]) [compound 180795] | 62% |
| 180817 (antisense eG*e[5mC]*eA*eT*e[5mC]*dG*dG*dA*dA*dT*dA*d[5mC]*d[5mC]*dT*d[5mC]*eT*e[5mC]*e[5mC]*e[5mC]*eA) [compound 180817] | 51% |
| 180810 (antisense eT*e[5mC]*eA*eG*eA*dA*dT*dT*dG*d[5mC]*d[5mC]*d[5mC]*dG*dA*d[5mC]*e[5mC]*eA*eG*eT*eT) [compound 180810] | 83% |
| 180827 (antisense eA*eG*e[5mC]*eT*eA*d[5mC]*dG*dA*dG*dT*dA*d[5mC]*d[5mC]*dT*dT*e[5mC]*eA*eG*eG*eG) [compound 180827] | 54% |

| Substance | % INHIB (inhibition of mouse RANKL mRNA levels) |
| --- | --- |
| 180791 (antisense e[5mC]*e[5mC]*eG*e[5mC]*e[5mC]*dG*dA*dG*d[5mC]*dA*dG*dA*d[5mC]*dT*d[5mC]*e[5mC]*eG*e[5mC]*e[5mC]*eA) [compound 180791] | 44% |
| 180808 (antisense eA*eG*e[5mC]*eT*eG*dA*dA*dG*dA*dT*dA*dG*dT*d[5mC]*dT*eG*eT*eA*eG*eG) [compound 180808] | 74% |
| agctacgagtaccttcaggg (antisense eA*eG*e[5mC]*eT*eA*d[5mC]*dG*dA*dG*dT*dA*d[5mC]*d[5mC]*dT*dT*e[5mC]*eA*eG*eG*eG) [ISIS 180827, 2′-MOE gapmer targeted to mouse RANKL] | at least 40% |
| ggcttgcctcgctgggccac (antisense eG*eG*e[5mC]*eT*eT*dG*d[5mC]*d[5mC]*dT*d[5mC]*dG*d[5mC]*dT*dG*dG*eG*e[5mC]*e[5mC]*eA*e[5mC]) [ISIS 180805, 2′-MOE gapmer targeted to mouse RANKL] | at least 40% |
| 180789 (antisense eG*e[5mC]*eA*eG*eA*d[5mC]*dT*d[5mC]*d[5mC]*dG*d[5mC]*d[5mC]*dA*d[5mC]*dG*eG*e[5mC]*e[5mC]*e[5mC]*e[5mC]) [compound 180789] | 34% |
| gctggcccggcgcatggcgc (antisense eG*e[5mC]*eT*eG*eG*d[5mC]*d[5mC]*d[5mC]*dG*dG*d[5mC]*dG*d[5mC]*dA*dT*eG*eG*e[5mC]*eG*e[5mC]) [ISIS 180795, 2′-MOE gapmer targeted to mouse RANKL] | at least 40% |
| tcagaattgcccgaccagtt (antisense eT*e[5mC]*eA*eG*eA*dA*dT*dT*dG*d[5mC]*d[5mC]*d[5mC]*dG*dA*d[5mC]*e[5mC]*eA*eG*eT*eT) [ISIS 180810, 2′-MOE gapmer targeted to mouse RANKL] | at least 40% |
| 180804 (antisense e[5mC]*eA*eG*eT*eT*d[5mC]*d[5mC]*dT*dT*d[5mC]*dT*dG*d[5mC]*dA*d[5mC]*eG*eG*e[5mC]*e[5mC]*e[5mC]) [compound 180804] | 44% |
| gccctgctccgcgatcgttc (antisense eG*e[5mC]*e[5mC]*e[5mC]*eT*dG*d[5mC]*dT*d[5mC]*d[5mC]*dG*d[5mC]*dG*dA*dT*e[5mC]*eG*eT*eT*e[5mC]) [ISIS 180793, 2′-MOE gapmer targeted to mouse RANKL] | at least 40% |
| 180801 (antisense eA*eA*e[5mC]*eA*eT*dG*dG*dA*dG*d[5mC]*dG*dG*dG*dA*dG*eG*e[5mC]*eG*eG*e[5mC]) [compound 180801] | 40% |
| 180818 (antisense eT*e[5mC]*eA*eG*eT*dG*dG*d[5mC]*dA*d[5mC]*dA*dT*dG*dT*d[5mC]*e[5mC]*eA*eG*eG*eG) [compound 180818] | 59% |
| 180824 (antisense eT*eG*eT*e[5mC]*eA*dA*d[5mC]*dA*dG*dT*dG*dA*dG*dA*d[5mC]*eA*eT*eT*eT*eT) [compound 180824] | 29% |
| 180799 (antisense e[5mC]*eG*eG*eG*eA*dG*dG*d[5mC]*dG*dG*d[5mC]*dG*dG*dG*dT*eG*eG*e[5mC]*eG*eG) [compound 180799] | 52% |
| 180790 (antisense eA*eG*e[5mC]*eA*eG*dA*d[5mC]*dT*d[5mC]*d[5mC]*dG*d[5mC]*d[5mC]*dA*d[5mC]*eG*eG*e[5mC]*e[5mC]*e[5mC]) [compound 180790] | 59% |
| 180805 (antisense eG*eG*e[5mC]*eT*eT*dG*d[5mC]*d[5mC]*dT*d[5mC]*dG*d[5mC]*dT*dG*dG*eG*e[5mC]*e[5mC]*eA*e[5mC]) [compound 180805] | 62% |
| tttattttgcttgcatagtt (antisense eT*eT*eT*eA*eT*dT*dT*dT*dG*d[5mC]*dT*dT*dG*d[5mC]*dA*eT*eA*eG*eT*eT) [ISIS 180828, 2′-MOE gapmer targeted to mouse RANKL] | at least 40% |
| cttatttgcaggtcccagcg (antisense e[5mC]*eT*eT*eA*eT*dT*dT*dG*d[5mC]*dA*dG*dG*dT*d[5mC]*d[5mC]*e[5mC]*eA*eG*e[5mC]*eG) [ISIS 180820, 2′-MOE gapmer targeted to mouse RANKL] | at least 40% |
| acatggagcgggaggcggcg (antisense eA*e[5mC]*eA*eT*eG*dG*dA*dG*d[5mC]*dG*dG*dG*dA*dG*dG*e[5mC]*eG*eG*e[5mC]*eG) [ISIS 180800, 2′-MOE gapmer targeted to mouse RANKL] | at least 40% |
